# Test results as given in patent US11414431B2, “Substituted pyrazolo[1,5-a]pyrimidines as TYK2 inhibitors” (Nimbus Lakshmi, Inc., priority 2018, dated 2022).
# Tested on: IL-12 induced STAT4 phosphorlyation mediated by TYK2/JAK2
# Experiment: IL-12 Induced pSTAT4 in Human PBMC
# Format: cell-based
# Conditions: 1.7 ng/mL IL-12 for 30 minutes
# In short: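 Thawed human PBMC pre-incubated with compound 1 hr at 37° C (0.1% DMSO final), then stimulated 30 minutes with IL-12 at 1.7 ng/mL final. pSTAT4 and total STAT4 measured in cell lysates with MSD reagents.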
row,SMILES,IC50
1,CNc1cc(Nc2cccn([C@@H]3CCC[C@@H]3O)c2=O)nc2c(C(=O)NC3CC[C@@H]3F)cnn12 (stereo partly shown) [Compound I-179],< 0.1 µM
2,CO[C@H]1CC[C@@H]1NC(=O)c1cnn2c(N)cc(-c3cnc4n([C@H]5COC[C@@H]5OC)cccc3-4)nc12 [Compound I-1006],< 0.1 µM
3,CNc1cc(Nc2cccn([C@H]3C[C@@H]3OC)c2=O)nc2c(C(=O)N[C@H]3CC[C@@H]3F)cnn12 [Compound I-158],< 0.1 µM
4,CNc1cc(-c2cn([C@H]3CC(=O)N(C)C3)c3ncccc23)nc2c(C(=O)NC3CC[C@@H]3OC)cnn12 (stereo partly shown) [Compound I-1017],0.1 to 0.5 µM
5,CNc1cc(-c2cn([C@@H]3COC[C@H]3OC)c3ncccc23)nc2c(C(=O)N[C@H]3CC[C@@H]3OC)cnn12 [Compound I-637],< 0.1 µM
6,CNc1cc(Nc2cccn([C@H]3CC[C@@H]3OC)c2=O)nc2c(C(=O)NC3CC[C@H]3O)cnn12 (stereo partly shown) [Compound I-239],< 0.1 µM
7,CNc1cc(-c2cn([C@@H]3CCOC[C@H]3F)c3ncccc23)nc2c(C(=O)N[C@H]3COC[C@H]3O)cnn12 [Compound I-937],0.1 to 0.5 µM
8,CNc1cc(Nc2cccn([C@H]3CC[C@H]3O)c2=O)nc2c(C(=O)N[C@H]3CCC3(F)F)cnn12 [Compound I-287],< 0.1 µM
9,CNc1cc(Nc2cccn([C@@H]3C[C@H]3F)c2=O)nc2c(C(=O)N[C@@H]3CCC3(F)F)cnn12 [Compound I-276],< 0.1 µM
10,CNc1cc(-c2cn([C@H]3CCOC[C@H]3OC)c3ncccc23)nc2c(C(=O)N[C@@H]3CCC3(F)F)cnn12 [Compound I-811],< 0.1 µM
11,CNc1cc(Nc2cccn(C3CCOCC3)c2=O)nc2c(C(=O)N[C@@H]3CCC3(F)F)cnn12 [Compound I-311],< 0.1 µM
12,CNc1cc(-c2cn([C@@H]3CCC4(C3)OCCO4)c3ncccc23)nc2c(C(=O)NC3CC[C@@H]3OC)cnn12 (stereo partly shown) [Compound I-672],< 0.1 µM
13,CNc1cc(Nc2cccn([C@H]3CC[C@H](OC)CC3)c2=O)nc2c(C(=O)N[C@@H]3CC[C@@]3(C)OC)cnn12 [Compound I-428],< 0.1 µM
14,CNc1cc(-c2cn([C@@H]3CC(=O)N(C)C3)c3ncccc23)nc2c(C(=O)N[C@H]3CC[C@@H]3OC)cnn12 [Compound I-1022],0.1 to 0.5 µM
15,CNc1cc(-c2cn(C(C)C)c3nnccc23)nc2c(C(=O)N[C@@H]3CC[C@H]3OC)cnn12 [Compound I-1009],< 0.1 µM
16,CNc1cc(-c2cn([C@@H]3CN(C)C[C@H]3F)c3ncccc23)nc2c(C(=O)NC3CC[C@@H]3OC)cnn12 (stereo partly shown) [Compound I-642],< 0.1 µM
17,CNc1cc(Nc2cccn([C@@H]3CCC[C@@H](OC)C3)c2=O)nc2c(C(=O)NC3CC[C@@H]3F)cnn12 (stereo partly shown) [Compound I-227],< 0.1 µM
18,CNc1cc(-c2cn(C3CN(C)C3)c3ncccc23)nc2c(C(=O)N[C@H]3CC[C@@H]3F)cnn12 [Compound I-514],< 0.1 µM
19,CNc1cc(-c2cn([C@H]3[C@@H]4COC[C@@H]43)c3ncccc23)nc2c(C(=O)N[C@H]3CC[C@@H]3O)cnn12 [Compound I-915],< 0.1 µM
20,CNc1cc(-c2cn([C@H]3CCOC3)c3ncccc23)nc2c(C(=O)N[C@H]3CC[C@@H]3OC)cnn12 [Compound I-613],< 0.1 µM
21,CNc1cc(-c2cn([C@H]3CCOC[C@@H]3F)c3ncccc23)nc2c(C(=O)N[C@H]3CC[C@@H]3OC)cnn12 [Compound I-802],< 0.1 µM
22,CNc1cc(-c2cnc3n([C@H]4COC[C@@H]4OC)cccc2-3)nc2c(C(=O)NC3CC[C@H]3F)cnn12 (stereo partly shown) [Compound I-838],< 0.1 µM
23,CNc1cc(Nc2cccn([C@H]3CCCC[C@H]3O)c2=O)nc2c(C(=O)N[C@H]3CC[C@]3(C)OC)cnn12 [Compound I-424],< 0.1 µM

row,SMILES,IC50
1,CNc1cc(-c2cn([C@@H]3COC[C@H]3OC)c3ncccc23)nc2c(C(=O)NC3CC[C@H]3F)cnn12 (stereo partly shown) [Compound I-531],< 0.1 µM
2,CNc1cc(Nc2cccn([C@@H]3CCC[C@@H]3O)c2=O)nc2c(C(=O)NC3CCC3(F)F)cnn12 (stereo partly shown) [Compound I-303],< 0.1 µM
3,CNc1cc(-c2cnc3n([C@@H]4CCOC4)cccc2-3)nc2c(C(=O)NC3CC[C@@H]3OC)cnn12 (stereo partly shown) [Compound I-995],< 0.1 µM
4,CNc1cc(-c2cn([C@H]3CC3(F)F)c3ncccc23)nc2c(C(=O)N[C@@H]3COC[C@@H]3O)cnn12 [Compound I-711],< 0.1 µM
5,CNc1cc(Nc2cccn([C@@H]3CCCOC3)c2=O)nc2c(C(=O)NC3CC[C@@H]3F)cnn12 (stereo partly shown) [Compound I-194],< 0.1 µM
6,CNc1cc(-c2cnc3n([C@@H]4COC[C@H]4OC)cccc2-3)nc2c(C(=O)N[C@@H]3CC[C@H]3OC)cnn12 [Compound I-884],< 0.1 µM
7,CNc1cc(Nc2cccn([C@H]3C[C@H](OC)C3)c2=O)nc2c(C(=O)N[C@H]3CCC3(F)F)cnn12 [Compound I-293],< 0.1 µM
8,CNc1cc(Nc2cccn(C3COC3)c2=O)nc2c(C(=O)NC3CCC3(F)F)cnn12 (stereo not shown) [Compound I-280],< 0.1 µM
9,CNc1cc(Nc2cccn(C3CCOCC3)c2=O)nc2c(C(=O)NC3CC[C@]3(C)O)cnn12 (stereo partly shown) [Compound I-348],< 0.1 µM
10,CNc1cc(Nc2cccn([C@H]3C[C@@H]3F)c2=O)nc2c(C(=O)NC3CCC3(F)F)cnn12 (stereo partly shown) [Compound I-277],< 0.1 µM
11,CNc1cc(-c2cn([C@@H]3CCN(C)C3)c3ncccc23)nc2c(C(=O)NC3CCC3(F)F)cnn12 (stereo partly shown) [Compound I-686],< 0.1 µM
12,CNc1cc(Nc2cccn(-c3ccccn3)c2=O)nc2c(C(=O)NC3CC[C@@H]3F)cnn12 (stereo partly shown) [Compound I-200],< 0.1 µM
13,"CNc1cc(-c2cn([C@H]3[C@@H]4COC[C@@H]43)c3ncccc23)nc2c(C(=O)N[C@H]3CC[C@@H]3OC)cnn12 [Compound I-793, 5-(1-((1R,5S,6r)-3-oxabicyclo[3.1.0]hexan-6-yl)-1H-pyrrolo[2,3-b]pyridin-3-yl)-N-((1S,2S)-2-methoxycyclobutyl)-7-(methylamino)pyrazolo[1,5-a]pyrimidine-3-carboxamide]",< 0.1 µM
14,CNc1cc(-c2cnc3n([C@@H]4COC[C@H]4OC)cccc2-3)nc2c(C(=O)NC3CC[C@@H]3F)cnn12 (stereo partly shown) [Compound I-835],< 0.1 µM
15,CNc1cc(-c2cn([C@H]3COC[C@@H]3OC)c3ncccc23)nc2c(C(=O)NC3CC[C@H]3F)cnn12 (stereo partly shown) [Compound I-528],< 0.1 µM
16,CNc1cc(-c2cn([C@@H]3CCC4(C3)OCCO4)c3ncccc23)nc2c(C(=O)N[C@H]3CC[C@@H]3OC)cnn12 [Compound I-806],< 0.1 µM
17,CNc1cc(-c2cnc3n([C@@H]4COC[C@H]4O)cccc2-3)nc2c(C(=O)NC3CCC3(F)F)cnn12 (stereo partly shown) [Compound I-901],< 0.1 µM
18,CNc1cc(-c2cn([C@H]3CCOC[C@H]3OC)c3ncccc23)nc2c(C(=O)NC3CC[C@@H]3F)cnn12 (stereo partly shown) [Compound I-546],< 0.1 µM
19,CNc1cc(-c2cnc3n([C@@H]4COC[C@H]4OC)cccc2-3)nc2c(C(=O)NC3CC[C@H]3O)cnn12 (stereo partly shown) [Compound I-865],0.5 to 1 µM
20,CNc1cc(Nc2cccn([C@H]3CCCC[C@H]3O)c2=O)nc2c(C(=O)NC3CC[C@]3(C)OC)cnn12 (stereo partly shown) [Compound I-423],< 0.1 µM
21,CNc1cc(Nc2cccn([C@H]3C[C@@H](OC)C3)c2=O)nc2c(C(=O)N[C@H]3CC[C@@H]3F)cnn12 [Compound I-174],< 0.1 µM
22,CNc1cc(Nc2cccn([C@@H]3C[C@H]3F)c2=O)nc2c(C(=O)NC3CC[C@@H]3F)cnn12 (stereo partly shown) [Compound I-151],< 0.1 µM

# Same assay, conditions: 0.5 h, 1.7 ng/mL IL-12 for 30 minutes
row,SMILES,IC50
1,"CNc1cc(-c2cn([C@@H]3CCOC[C@H]3F)c3ncccc23)nc2c(C(=O)NC3CC[C@H]3O)cnn12 (stereo partly drawn) [Compound I-592, 5-(1-((3S,4R)-3-Fluorotetrahydro-2H-pyran-4-yl)-1H-pyrrolo[2,3-b]pyridin-3-yl)-N-((cis-1,2)-2-hydroxycyclobutyl)-7-(methylamino)pyrazolo[1,5-a]pyrimidine-3-carboxamide]",< 0.1 µM
2,"CNc1cc(-c2cnc3n(CCCN4CCOCC4)cccc2-3)nc2c(C(=O)NC3CC[C@@H]3OC)cnn12 (stereo in doubt) [Compound I-981, N-(2-methoxycyclobutyl)-7-(methylamino)-5-(7-(3-morpholinopropyl)-7H-pyrrolo[2,3-b]pyridin-3-yl)pyrazolo[1,5-a]pyrimidine-3-carboxamide]",0.1 to 0.5 µM
3,"CNc1cc(-c2cnc3n([C@H]4CCOC4)cccc2-3)nc2c(C(=O)NC3CC[C@@H]3OC)cnn12 (stereo partly drawn) [Compound I-994, N-(2-methoxycyclobutyl)-7-(methylamino)-5-(7-((S)-tetrahydrofuran-3-yl)-7H-pyrrolo[2,3-b]pyridin-3-yl)pyrazolo[1,5-a]pyrimidine-3-carboxamide]",< 0.1 µM
4,"CNc1cc(-c2cnc3n([C@H]4COC[C@@H]4O)cccc2-3)nc2c(C(=O)NC3CC[C@@H]3F)cnn12 (stereo partly drawn) [Compound I-826, N-((trans-1,2)-2-Fluorocyclobutyl)-5-(7-((3S,4R)-4-hydroxytetrahydrofuran-3-yl)-7H-pyrrolo[2,3-b]pyridin-3-yl)-7-(methylamino)pyrazolo[1,5-a]pyrimidine-3-carboxamide]",< 0.1 µM
5,"CNc1cc(-c2cn([C@@H]3CC(=O)N(C)C3)c3ncccc23)nc2c(C(=O)NC3CC[C@@H]3OC)cnn12 (stereo partly drawn) [Compound I-1016, N-(2-methoxycyclobutyl)-5-(1-((R)-1-methyl-5-oxopyrrolidin-3-yl)-1H-pyrrolo[2,3-b]pyridin-3-yl)-7-(methylamino)pyrazolo[1,5-a]pyrimidine-3-carboxamide]",0.1 to 0.5 µM
6,"[2H]C([2H])([2H])O[C@H]1CCC1NC(=O)c1cnn2c(NC)cc(Nc3cccn([C@H]4[C@@H]5COC[C@@H]54)c3=O)nc12 (stereo partly drawn) [Compound I-102, 5-((1-((1R,5S,6r)-3-Oxabicyclo[3.1.0]hexan-6-yl)-2-oxo-1,2-dihydropyridin-3-yl)amino)-N-((trans-1,2)-2-(methoxy-d3)cyclobutyl)-7-(methylamino)pyrazolo[1,5-a]pyrimidine-3-carboxamide]",< 0.1 µM
7,"CNc1cc(Nc2cccn([C@H]3C[C@H](F)C3)c2=O)nc2c(C(=O)NC3CC[C@H]3O)cnn12 (stereo partly drawn) [Compound I-11, 5-((1-((1r,3S)-3-Fluorocyclobutyl)-2-oxo-1,2-dihydropyridin-3-yl)amino)-N-(2-hydroxycyclobutyl)-7-(methylamino)pyrazolo[1,5-a]pyrimidine-3-carboxamide]",0.1 to 0.5 µM
